Values after ≈ are worked out from the molar mass of the structure shown. Active and inactive are the calls of the source. No cut-off for these calls is given here.
Experiments:
Cathepsin D [1] = target: T1, Cathepsin D (Homo sapiens, UniProt P07339); assay: Inhibition of cathepsin D (unknown origin) using hemoglobin as substrate at 20 ug/mL after 30 min by spectrophotometric analysis
Cathepsin D [2] = target: T1, Cathepsin D; assay: Inhibition of cathepsin D (unknown origin) using hemoglobin as substrate after 30 min by spectrophotometric analysis
MDA-MB-231 = assay: Cytotoxicity against Homo sapiens (human) MDA-MB-231 cells assessed as growth inhibition by MTT assay; assay type: functional, cell-based

T1 sequence (P07339 65-162 limits assumed): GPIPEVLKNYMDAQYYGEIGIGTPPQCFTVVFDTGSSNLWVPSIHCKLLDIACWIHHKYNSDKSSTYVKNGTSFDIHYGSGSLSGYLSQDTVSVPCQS
T1 sequence (P07339 169-412 limits assumed): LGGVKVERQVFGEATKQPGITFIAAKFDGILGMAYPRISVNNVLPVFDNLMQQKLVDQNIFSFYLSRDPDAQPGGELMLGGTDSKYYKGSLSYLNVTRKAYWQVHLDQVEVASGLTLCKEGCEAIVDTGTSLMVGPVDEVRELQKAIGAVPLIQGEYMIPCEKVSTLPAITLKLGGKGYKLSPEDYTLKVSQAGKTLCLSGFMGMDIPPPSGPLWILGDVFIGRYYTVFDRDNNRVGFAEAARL

Row | SMILES | inhibition (Cathepsin D [1]) | IC50 (Cathepsin D [2]) [µM] | growth inhibition (GI) (MDA-MB-231) [%] | IC50 (MDA-MB-231; Homo sapiens, MDA-MB-231) [µg/mL]
1 | CC(=O)O[C@H]1CC[C@]2(C)[C@H]3CC=C4[C@@H]5[C@@H](C)[C@H](C)CC[C@]5(C(=O)O)CC[C@@]4(C)[C@]3(C)CC[C@H]2C1(C)C | inactive | – | – | –
2 | CC[C@H](CC[C@@H](C)[C@H]1CC[C@H]2[C@@H]3CC=C4C[C@@H](O)CC[C@]4(C)[C@H]3CC[C@]12C)C(C)C | inactive | – | – | –
3 | CC[C@H](CC[C@@H](C)[C@H]1CC[C@H]2[C@@H]3CC=C4C[C@@H](OC(C)=O)CC[C@]4(C)[C@H]3CC[C@]12C)C(C)C | inactive | – | – | –
4 | C[C@H]1[C@H](C)CC[C@]2(C(N)=O)CC[C@]3(C)C(=CC[C@@H]4[C@@]5(C)CC[C@H](O)C(C)(C)[C@@H]5CC[C@]43C)[C@H]12 | inactive | – | – | –
5 | CC[C@H](CC[C@@H](C)[C@H]1CC[C@H]2[C@@H]3CC=C4CC(=O)CC[C@]4(C)[C@H]3CC[C@]12C)C(C)C [BETA-SITOSTENONE] | – | 9.4 | – | –
6 | COC(=O)[C@]12CC[C@@H](C)[C@H](C)[C@H]1C1=CC[C@@H]3[C@@]4(C)CC[C@H](O)C(C)(C)[C@@H]4CC[C@@]3(C)[C@]1(C)CC2 [METHYL URSOLATE] | – | 9.45 | <5 | –
7 | O=C(/C=C/C=C/c1ccc2c(c1)OCO2)N1CCCCC1 [PIPERINE] | – | 42.3 | – | 58.4 (≈ 205 µM)
8 | C[C@H]1[C@H](C)CC[C@]2(C(=O)O)CC[C@]3(C)C(=CC[C@@H]4[C@@]5(C)CC[C@H](O)C(C)(C)[C@@H]5CC[C@]43C)[C@H]12 [URSOLIC ACID] | – | 18.2 | <5 | –
9 | C[C@H]1[C@H](C)CC[C@]2(C(=O)O)CC[C@]3(C)C(=CC[C@@H]4[C@@]5(C)CCC(=O)C(C)(C)[C@@H]5CC[C@]43C)[C@H]12 [URSONIC ACID] | – | 14.1 | <5 | –
